In article PMC13589290, “Plasmodium falciparum HSP90 inhibitors show divergent resistance despite a shared ATP-binding site” (Cell reports, 2026):

Columns and labels:
[1] = biological target: T1, HSC82 (Saccharomyces cerevisiae, UniProt P15108, A41S); experiment: fluorescence polarization competition with GA-FITC on purified protein; type: binding
T1 construct: N-terminal domain, C-terminal hexahistidine tag

[2] = biological target: T2, HSC82 (Saccharomyces cerevisiae, UniProt P15108); experiment: as above; type: binding
T2 construct: N-terminal domain, C-terminal hexahistidine tag

Compound	fluorescence polarization competition with GA-FITC on purified protein [1]	fluorescence polarization competition with GA-FITC on purified protein [2]
CCNC(=O)c1noc(-c2cc(C(C)C)c(O)cc2O)c1-c1ccc(CN2CCOCC2)cc1 [AUY-922]	A41S reduced AUY-922 binding affinity in yeast HSC82, as evidenced by a rightward shift in the competition curve	A41S reduced AUY-922 binding affinity in yeast HSC82, as evidenced by a rightward shift in the competition curve
COC1=C2C[C@@H](C)C[C@H](OC)[C@H](O)[C@@H](C)/C=C(\C)[C@H](OC(N)=O)[C@@H](OC)/C=C\C=C(/C)C(=O)NC(=CC1=O)C2=O [Geldanamycin]	GA binding was unaffected by the A41S substitution in yeast HSC82	GA binding was unaffected by the A41S substitution in yeast HSC82
